Source: article PMC11288311 (Cell chemical biology, 2022)

Legend:
LRH-1 K520A = assay: Luciferase reporter assay with LRH-1 K520A mutant; assay type: cell-based, human; conditions: K520A mutation, 30 μM, 24 hours
[1] = tested on: endogenous LRH-1 in Huh7 hepatocytes; assay: qRT-PCR of LRH-1 targets in Huh7 hepatocytes; assay type: cell-based, human; conditions: Huh7, 24-hour treatment
mouse LRH-1 = mouse LRH-1 (Mus musculus, UniProt P45448); assay: Activation of mouse LRH-1 in vitro
hLRH-1 enteroids = assay: Gene expression in TNF-stimulated humanized LRH-1 mouse intestinal enteroids; assay type: cell-based; conditions: 1 μM overnight, not observed in LRH-1-deficient enteroids
hLRH1 IEC Rag2-/- mice = assay: T cell transfer; assay type: in vivo, mouse; conditions: 20 mg/kg i.p., 16 days
[2] = tested on: human LRH-1 (hLRH-1) in the liver; assay: Liver gene expression
LRH-1 LBD Y516A or K520A = assay type: binding, human; conditions: Y516A or K520A mutation
[3] = Aqueous solubility by LC-MS in PBS; assay type: physicochemical; conditions: PBS pH 7.4, 25°C, 2 hours

Sequence of mouse LRH-1 (P45448 whole entry): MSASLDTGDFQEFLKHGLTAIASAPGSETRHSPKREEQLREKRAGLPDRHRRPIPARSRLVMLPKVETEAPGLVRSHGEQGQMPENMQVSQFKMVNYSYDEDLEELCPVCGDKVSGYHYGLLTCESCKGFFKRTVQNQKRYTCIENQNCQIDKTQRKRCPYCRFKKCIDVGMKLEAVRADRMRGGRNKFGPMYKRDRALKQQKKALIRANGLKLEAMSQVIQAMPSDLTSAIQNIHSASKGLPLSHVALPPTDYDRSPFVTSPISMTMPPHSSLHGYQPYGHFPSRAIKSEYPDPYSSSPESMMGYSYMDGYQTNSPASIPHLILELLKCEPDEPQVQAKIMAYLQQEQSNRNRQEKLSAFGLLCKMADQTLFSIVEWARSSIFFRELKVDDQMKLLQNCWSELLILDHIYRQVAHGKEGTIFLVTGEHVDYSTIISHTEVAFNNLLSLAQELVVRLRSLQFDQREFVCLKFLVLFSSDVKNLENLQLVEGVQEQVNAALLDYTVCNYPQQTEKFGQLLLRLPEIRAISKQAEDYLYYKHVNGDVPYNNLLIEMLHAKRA

Structure (SMILES)	Reduction of activation versus WT LRH-1 (LRH-1 K520A)	Expression of LRH-1 targets SHP (NR0B2) and PLK3 [1]	Expression of de novo lipogenesis targets SREBF1, ACACB, FASN, SCD1 [1]	Activation of mouse LRH-1 (mouse LRH-1)	Expression of Cyp11a1 and Il-10 (hLRH-1 enteroids)	Body weight at end of study relative to mean pre-treatment body weight (hLRH1 IEC Rag2-/- mice) [%]	Colon histology scores (hLRH1 IEC Rag2-/- mice)	Expression of LRH-1 targets Cyp8b1, Cyp11a1, Cyp11b1 in colonic crypts (hLRH1 IEC Rag2-/- mice)	Liver expression of lipogenic genes (Fasn, Acacb, Scd1) ([2]; 0.1, 1 or 10 mg/kg, five i.p. injections over three days)	Liver expression of Srebf1 ([2]; not statistically significant, p = 0.09 versus vehicle)	Decrease in binding affinity, mutant versus WT LRH-1 (LRH-1 LBD Y516A or K520A)	Aqueous solubility limit [3] [µM]
C=C(c1ccccc1)[C@@]12CC[C@@H](O)[C@@H]1CC(CCCCCCCCCC(=O)O)=C2c1ccccc1 [Compound 10CA]	around 60%	dose-dependently upregulates	downregulates	poor activators of mouse LRH-1	induces expression	≤ 1	markedly improved	strong upregulation	downregulation of lipogenic genes	trends lower	–	–
C=C(c1ccccc1)[C@@]12CC[C@@H](O)[C@@H]1CC(CCCCCC)=C2c1ccccc1 [RJW100]	–	–	–	–	–	–	–	–	–	–	insensitive or less sensitive	2.9
